# What was measured:
# soybean = assay: Test B pre/postemergence soybean; format: in vivo, Glycine max
# In short: (§1)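 Test chemicals in a non-phytotoxic solvent mixture with surfactant were sprayed preemergence onto planted seeds and postemergence onto plants 2 to 18 cm tall (1- to 4-leaf stage). After twelve to sixteen days in a greenhouse, injury was visually rated against untreated controls from 0 (no effect) to 10 (complete control).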
# blackgrass = assay: Test B pre/postemergence blackgrass; format: in vivo, Alopecurus myosuroides
# In short: as §1
# duck salad = assay: Test B flood test duck salad; format: in vivo, Heteranthera limosa
# In short: (§2)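 Read-out is a visual response score from 0 (no effect) to 10 (complete control), assigned by comparison with untreated controls. Treatment was applied at the 2-leaf stage, and plants stayed in the greenhouse for twelve to sixteen days before scoring.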
# velvetleaf = assay: Test B pre/postemergence velvetleaf; format: in vivo, Abutilon theophrasti
# In short: as §1
# bamyardgrass = assay: Test B flood test barnyardgrass; format: in vivo, Echinochloa crus-galli
# In short: as §2
# rape = assay: Test B pre/postemergence rape; format: in vivo, Brassica napus
# In short: as §1
# giant foxtail = assay: Test B pre/postemergence giant foxtail; format: in vivo, Setaria faberii
# In short: as §1
# bedstraw = assay: Test B pre/postemergence bedstraw; format: in vivo, Galium aparine
# In short: as §1
# surinam grass = assay: Test B pre/postemergence surinam grass; format: in vivo, Brachiaria decumbens
# In short: as §1
# corn = assay: Test B pre/postemergence corn; format: in vivo, Zea mays
# In short: as §1
# purple nutsedge = assay: Test B pre/postemergence purple nutsedge; format: in vivo, Cyperus rotundus
# In short: as §1
# morningglory = assay: Test B pre/postemergence morningglory; format: in vivo, Ipomoea hederacea
# In short: as §1
# pigweed = assay: Test B pre/postemergence pigweed; format: in vivo, Amaranthus retroflexus
# In short: as §1
# smallflower flatsedge = assay: Test B flood test smallflower flatsedge; format: in vivo, Cyperus difformis
# In short: as §2
# rice = assay: Test B flood test rice; format: in vivo, Oryza sativa
# In short: as §2
# sugar beet = assay: Test B pre/postemergence sugar beet; format: in vivo, Beta vulgaris
# In short: as §1
# [1] = Preemergence, Rate 62 g/ha, scale of 0 to 10 where 0 is no effect and 10 is complete control
# [2] = Preemergence, Rate 125 g/ha, 0 is no effect, 10 is complete control
# [3] = Preemergence, Rate 250 g/ha, scale 0 to 10, 0 is no effect, 10 is complete control
# [4] = Preemergence, Rate 500 g/ha, scale of 0 to 10 where 0 is no effect and 10 is complete control
# [5] = Rate 62 g/ha, Postemergence, scale of 0 to 10 where 0 is no effect and 10 is complete control
# [6] = Rate 125 g/ha, Postemergence, scale 0 to 10
# [7] = Rate 500 g/ha, Postemergence, scale 0 to 10
# [8] = Rate 62 g/ha, headed Pre-emergence (flood test species), scale 0 to 10 (0 no effect, 10 complete control)
# [9] = Rate 125 g/ha, Pre-emergence, flood test species, scale 0 to 10 where 0 is no effect and 10 is complete control
# [10] = Rate 250 g/ha, Pre-emergence, flood-test species, scale 0 to 10, 0 is no effect, 10 is complete control
# [11] = Rate 500 g/ha, headed Pre-emergence (flood test species), scale 0 to 10 (0 no effect, 10 complete control)
smiles,measurement,setting,value
CCC(CC)N(C(=O)n1oc(=O)n(-c2ccccc2C)c1=O)c1ccc(F)cc1 [Compound 193],Soybean plant response rating,soybean; [1],0
same,Soybean plant response rating (0 to 10 scale),soybean; [2],0
same,Soybean plant response rating,soybean; [3],0
same,"Plant response rating, Soybean",soybean; [4],0
same,Soybean plant response rating,soybean; [5],0
same,Soybean plant response rating,soybean; [6],1
same,"Plant response rating (0 to 10; 0 is no effect, 10 is complete control), Soybean","soybean; Rate 250 g/ha, Postemergence",1
same,Soybean plant response rating,soybean; [7],2
same,Blackgrass plant response rating,blackgrass; [1],0
same,Blackgrass plant response rating (0 to 10 scale),blackgrass; [2],0
same,Blackgrass plant response rating,blackgrass; [3],0
same,"Plant response rating, Blackgrass",blackgrass; [4],0
same,Blackgrass plant response rating,blackgrass; [5],0
same,Blackgrass plant response rating,blackgrass; [6],0
same,"Plant response rating (0 to 10; 0 is no effect, 10 is complete control), Blackgrass","blackgrass; Rate 250 g/ha, Postemergence",0
same,Blackgrass plant response rating,blackgrass; [7],0
same,Ducksalad plant response rating,duck salad; [8],0
same,Ducksalad plant response rating,duck salad; [9],0
same,Ducksalad plant response rating,duck salad; [10],0
same,"Plant response rating, Ducksalad",duck salad; [11],0
same,Velvetleaf plant response rating,velvetleaf; [1],0
same,Velvetleaf plant response rating,velvetleaf; [3],0
same,"Plant response rating, Velvetleaf",velvetleaf; [4],0
same,Velvetleaf plant response rating,velvetleaf; [5],0
same,Velvetleaf plant response rating,velvetleaf; [6],0
same,"Plant response rating (0 to 10; 0 is no effect, 10 is complete control), Velvetleaf","velvetleaf; Rate 250 g/ha, Postemergence",0
same,Barnyardgrass plant response rating,bamyardgrass; [8],0
same,Barnyardgrass plant response rating,bamyardgrass; [9],0
same,Barnyardgrass plant response rating,bamyardgrass; [10],0
same,"Plant response rating, Barnyardgrass",bamyardgrass; [11],0
same,Rape plant response rating,rape; [1],0
same,Rape plant response rating (0 to 10 scale),rape; [2],0
same,Rape plant response rating,rape; [3],0
same,"Plant response rating, Rape",rape; [4],0
same,Rape plant response rating,rape; [5],0
same,Rape plant response rating,rape; [6],0
same,"Plant response rating (0 to 10; 0 is no effect, 10 is complete control), Rape","rape; Rate 250 g/ha, Postemergence",0
same,Rape plant response rating,rape; [7],0
same,Giant foxtail plant response rating,giant foxtail; [1],2
same,Giant foxtail plant response rating (0 to 10 scale),giant foxtail; [2],4
same,Giant foxtail plant response rating,giant foxtail; [3],5
same,"Plant response rating, Giant foxtail",giant foxtail; [4],6
same,Giant foxtail plant response rating,giant foxtail; [5],0
same,Giant foxtail plant response rating,giant foxtail; [6],0
same,"Plant response rating (0 to 10; 0 is no effect, 10 is complete control), Giant foxtail","giant foxtail; Rate 250 g/ha, Postemergence",0
same,Giant foxtail plant response rating,giant foxtail; [7],0
same,Bedstraw plant response rating,bedstraw; [1],0
same,Bedstraw plant response rating (0 to 10 scale),bedstraw; [2],0
same,Bedstraw plant response rating,bedstraw; [3],0
same,"Plant response rating, Bedstraw",bedstraw; [4],0
same,Bedstraw plant response rating,bedstraw; [5],0
same,Bedstraw plant response rating,bedstraw; [6],0
same,"Plant response rating (0 to 10; 0 is no effect, 10 is complete control), Bedstraw","bedstraw; Rate 250 g/ha, Postemergence",0
same,Bedstraw plant response rating,bedstraw; [7],0
same,B. signalgrass plant response rating,surinam grass; [1],0
same,B. signalgrass plant response rating (0 to 10 scale),surinam grass; [2],0
same,B. signalgrass plant response rating,surinam grass; [3],0
same,"Plant response rating, B. signalgrass",surinam grass; [4],0
same,B. signalgrass plant response rating,surinam grass; [5],0
same,B. signalgrass plant response rating,"surinam grass; Rate 125 g/ha, Postemergence, scale 0 (no effect) to 10 (complete control)",0
same,"Plant response rating, B. signalgrass","surinam grass; Rate 250 g/ha, Postemergence, scale 0 to 10, 0 is no effect, 10 is complete control",0
same,B. signalgrass plant response rating,"surinam grass; Rate 500 g/ha, Postemergence, scale 0 to 10, 0 no effect, 10 complete control",0
same,Corn plant response rating,corn; [1],0
same,Corn plant response rating (0 to 10 scale),corn; [2],0
same,Corn plant response rating,corn; [3],0
same,"Plant response rating, Corn",corn; [4],0
same,Corn plant response rating,corn; [5],0
same,Corn plant response rating,corn; [6],0
same,"Plant response rating (0 to 10; 0 is no effect, 10 is complete control), Corn","corn; Rate 250 g/ha, Postemergence",0
same,Corn plant response rating,corn; [7],0
same,Nutsedge plant response rating,purple nutsedge; [1],0
same,Nutsedge plant response rating (0 to 10 scale),purple nutsedge; [2],0
same,Nutsedge plant response rating,purple nutsedge; [3],0
same,"Plant response rating, Nutsedge",purple nutsedge; [4],0
same,Nutsedge plant response rating,purple nutsedge; [5],0
same,Nutsedge plant response rating,purple nutsedge; [6],0
same,"Plant response rating (0 to 10; 0 is no effect, 10 is complete control), Nutsedge","purple nutsedge; Rate 250 g/ha, Postemergence",0
same,Nutsedge plant response rating,purple nutsedge; [7],0
same,Morningglory plant response rating,morningglory; [1],0
same,Morningglory plant response rating (0 to 10 scale),morningglory; [2],0
same,Morningglory plant response rating,morningglory; [3],0
same,"Plant response rating, Morningglory",morningglory; [4],0
same,Morningglory plant response rating,morningglory; [5],0
same,Morningglory plant response rating,morningglory; [6],0
same,"Plant response rating (0 to 10; 0 is no effect, 10 is complete control), Morningglory","morningglory; Rate 250 g/ha, Postemergence",1
same,Morningglory plant response rating,morningglory; [7],2
same,Redroot pigweed plant response rating,pigweed; [1],0
same,Redroot pigweed plant response rating (0 to 10 scale),pigweed; [2],0
same,Redroot pigweed plant response rating,pigweed; [3],0
same,"Plant response rating, Redroot pigweed",pigweed; [4],0
same,Redroot pigweed plant response rating,pigweed; [5],0
same,Redroot pigweed plant response rating,pigweed; [6],0
same,"Plant response rating (0 to 10; 0 is no effect, 10 is complete control), Redroot pigweed","pigweed; Rate 250 g/ha, Postemergence",0
same,Redroot pigweed plant response rating,pigweed; [7],0
same,S. Flatsedge plant response rating,smallflower flatsedge; [8],0
same,S. Flatsedge plant response rating,smallflower flatsedge; [9],0
same,S. Flatsedge plant response rating,smallflower flatsedge; [10],0
same,S. Flatsedge plant response rating,"smallflower flatsedge; Rate 500 g/ha, Pre-emergence, flood test species, scale 0 to 10 (0 no effect, 10 complete control)",0
same,Rice plant response rating,rice; [8],0
same,Rice plant response rating,rice; [9],0
same,Rice plant response rating,rice; [10],0
same,"Plant response rating, Rice",rice; [11],0
same,Sugarbeets plant response rating,sugar beet; [1],0
same,Sugarbeets plant response rating (0 to 10 scale),sugar beet; [2],0
same,Sugarbeets plant response rating,sugar beet; [3],0
same,"Plant response rating, Sugarbeets",sugar beet; [4],0
same,Sugarbeets plant response rating,sugar beet; [5],0
same,Sugarbeets plant response rating,sugar beet; [6],0
same,"Plant response rating (0 to 10; 0 is no effect, 10 is complete control), Sugarbeets","sugar beet; Rate 250 g/ha, Postemergence",0
same,Sugarbeets plant response rating,sugar beet; [7],0
